Data on 71 compounds can be found in ChEMBL document CHEMBL3507680, “University of Dundee, Gates Library screen for HepG2 cell viability”.

The nature of the series: Human HepG2 cell viability assay in 384 well format. Conditions: HepG2 cells, read-out: Inhibition. Type of series: toxicity, cell-based. On the set-up: dose 125 nL, time 70.5 hour; cytotoxicity at 70.5 h: concentration not given beside the values.

As to `OCc1ccc(OCC(F)(F)F)cc1`, the cytotoxicity at 70.5 h is -8.76%.
Next, `Cc1nc(Nc2ccccn2)cc(N2CCN(S(C)(=O)=O)CC2)n1`: 11.2%; `CCOC(=O)CCC(=O)N1CCC(CSCc2ccco2)CC1`: -12%; `COCCc1noc(C2CCN(C(=O)Nc3cccs3)CC2)n1`: -4.24%.
For `COCC(=O)N1CCc2[nH]c(=O)ccc2C1` the value was -8.99%; for `O=c1ccc2c([nH]1)CCN(S(=O)(=O)c1ccc3c(c1)CCCC3)C2`, 3.55%; for `CC(C)Oc1ccc(C(=O)N2CCCSCC2CN(C)C)cc1` (stereo unspecified), 26.1%.
For `CN(C)CC1CSCCCN1C(=O)c1ccsc1` (stereo unspecified) the value was -6.74%.
For `CN(C)CC1CSCCCN1S(=O)(=O)c1ccc(C(F)(F)F)cc1` (stereo unspecified), the cytotoxicity at 70.5 h is -3.11%.
For `O=C(c1ccc2[nH]ccc2c1)N1CCCSCC1CN1CCCC1` (stereo unspecified) the value was -2.63%; for `O=C(COc1ccc(F)cc1)N1CCCSCC1CN1CCOCC1` (stereo unspecified), 5.05%; for `Cc1cccc(NC(=O)C2CSc3ncc(C)c(=O)n3C2)n1` (stereo unspecified), -9.15%.
For the compound `Cc1ccncc1NC(=O)C1CSc2ncc(C)c(=O)n2C1` (stereo unspecified), the cytotoxicity at 70.5 h was determined as 18.9%.
Take `CCc1c(C)nc2n(c1=O)CC(C(=O)NCc1cccs1)CS2` (stereo unspecified): the cytotoxicity at 70.5 h was determined as 23%.
For `COc1cc(C(=O)NCCc2ccc(OC)c(OC)c2)on1` the value was -2.98%; for `O=C(Cc1cccs1)NCC1(O)CCc2ccccc2C1` (stereo unspecified), -7.27%; for `CN(C)c1ccc(C(O)CNC(=O)NCCCc2ccccc2)cc1` (stereo unspecified), -9.74%.
For the compound `CSc1ccc(C(O)CNS(=O)(=O)C2CC2)cc1` (stereo unspecified), the cytotoxicity at 70.5 h is 2.97%.
Next, `COCCN(Cc1ccoc1)S(=O)(=O)c1ccc(F)c(C)c1`: -11%; `CCOCC(=O)NCCC(O)c1ccoc1` (stereo unspecified): -11.9%.
In the case of `Cc1cc(C(O)CCNC(=O)COc2ccccc2C)c(C)o1` (stereo unspecified), the cytotoxicity at 70.5 h was -2.27%.
Next, `CSc1ncccc1C(=O)NCCC(O)c1cc(C)oc1C` (stereo unspecified): -1.76%; `COC1(CNC(=O)c2ccc(F)c(F)c2)CCSC1` (stereo unspecified): -11.7%; `O=C(Nc1cccnc1)c1ccc(-n2cncn2)nn1`: 13.8%.
As for `Cc1csc(C(=O)NCCn2nc(-n3cncn3)ccc2=O)c1`, the cytotoxicity at 70.5 h was -6.83%.
As to `O=C(NCCn1nc(-n2cncn2)ccc1=O)c1ccsc1`, the cytotoxicity at 70.5 h is -4.55%.
Next, `Cc1cc(S(=O)(=O)N2CCC(S(C)(=O)=O)C2)ccc1F` (stereo unspecified): -5.71%.
Take `Cc1ccc(S(=O)(=O)N2CCC(S(C)(=O)=O)CC2)cc1C`: the cytotoxicity at 70.5 h was -0.502%.
Consider `O=C(Cn1c(=O)oc2ccccc21)N1Cc2cncnc2C1`, for which the cytotoxicity at 70.5 h is -5.29%.
For `Cn1cnc(S(=O)(=O)NCC(C)(O)c2ccc3c(c2)OCO3)c1` (stereo unspecified) the value was -6.14%; for `Cn1cnc(S(=O)(=O)NCC2(O)CCOc3ccccc32)c1` (stereo unspecified), -4.65%; for `Cc1oncc1C(=O)NCC1(O)CCc2ccccc2C1` (stereo unspecified), 0.91%.
For `Cn1cc(S(=O)(=O)NCC2CCN(C(=O)c3ccoc3)CC2)cn1` the value was -2.52%; for `O=C(Cc1ccsc1)NCCc1ccoc1`, -8.57%; for `Cc1nsc(C(=O)NCCc2ccccc2)n1`, -8.39%.
For `Cc1nc(N(C)C)nc(C)c1NC(=O)c1ccccc1C(F)(F)F` the value was -11%; for `Cc1nc(N2CCOCC2)nc(C)c1NC(=O)Cc1ccc(Cl)cc1`, 13.5%; for `Cc1nc(N(C)C)nc(C)c1NS(=O)(=O)c1ccccc1Cl`, -8.77%.
For the compound `Cc1nc(N2CCCC2)nc(C)c1NS(C)(=O)=O`, the cytotoxicity at 70.5 h came out at 0.704%.
As to `Cc1cc(C)c(S(=O)(=O)Nc2c(C)nc(N3CCCC3)nc2C)cc1C`, the cytotoxicity at 70.5 h came out at 2.48%.
For the compound `Cc1nc(N2CCCC2)nc(C)c1NS(=O)(=O)c1ccccc1F`, the cytotoxicity at 70.5 h is -1.28%.
For `CC(C)CC(=O)N1CCN(c2cc(N(C)C)cnn2)CC1`, the cytotoxicity at 70.5 h is -3.64%.
For `COc1ncc(NS(=O)(=O)c2cccc(C)c2)c(OC)n1`, the cytotoxicity at 70.5 h came to 21.8%.
Turning to `COc1ncc(NS(=O)(=O)c2ccc(OC)c(C)c2)c(OC)n1`, the cytotoxicity at 70.5 h turned out to be 7.97%.
Consider `Cc1nnsc1C(=O)NCCn1ccc(-c2ccncc2)n1`, for which the cytotoxicity at 70.5 h came out at 18.8%.
For `O=C(NCCn1ccc(-c2ccncc2)n1)c1ccc2c(c1)OCO2` the value was 1.76%; for `O=S(=O)(NCCn1ccc(-c2ccncc2)n1)C1CC1`, 0.267%; for `CC(C)(C)C(=O)NCCn1ccc(-c2ccccn2)n1`, -1.26%.
Turning to `CS(=O)(=O)NCCn1ccc(-c2cccs2)n1`, the cytotoxicity at 70.5 h was -6.85%.
For `Cn1nc(CNS(=O)(=O)Cc2ccccc2F)c2c1CCCC2` the value was -5.77%.
On to `Cc1nnsc1C(=O)NCc1nn(C)c2c1COCC2`, for which the cytotoxicity at 70.5 h is -13.8%.
Next, `COC(=O)c1ccc(C(=O)NCc2nn(C)c3c2COCC3)cc1`: -4.89%; `COCCN1CCC2(CC1)CN(Cc1cccc(C)n1)C(=O)CO2`: 0.221%.
Next, `Cc1cccc(CN2CC3(CCN(C(=O)C4CC4)CC3)OCC2=O)n1`: 1.74%; `Cc1ccc(N2CCc3sc(C(=O)NCCN4CCCC4)cc32)nn1`: -0.377%.
On to `COCCNC(=O)[C@H]1C[C@@H]2CCN(c3ncccn3)C[C@@H]2O1`, for which the cytotoxicity at 70.5 h was -4.51%.
For `Cc1ccnc(OC[C@]23COC[C@H]2CN(C(=O)c2ccnn2C)C3)n1` the value was -8.86%; for `CC(C)NC(=O)N1CCCC2(CC(C(=O)Nc3ccccc3)=NO2)C1` (stereo unspecified), 16.9%; for `Cn1cc(CN2CCC(F)(F)C3(CCN(c4cccc(F)c4)C3)C2)cn1` (stereo unspecified), 43.6%.
For `CCOCc1ncn2c1CN(C(=O)Nc1ccccc1CC)CC2` the value was 16.8%; for `CN1C(Cn2cccn2)C[C@@H]2CN(Cc3nccs3)CC[C@@H]21` (stereo partly specified), -5.16%; for `Cc1cccc(CN2CC3(CCN(S(=O)(=O)C4CC4)CC3)OCC2=O)n1`, -0.285%.
For `CNC(=O)CN1CC[C@H]2CN(C(=O)c3ccoc3)C[C@H]2C1` the value was -4.77%.
As for `O=C(NCc1ccco1)[C@H]1C[C@@H]2CCN(c3nncs3)C[C@H]2O1`, the cytotoxicity at 70.5 h is -9.42%.
As for `COCCNC(=O)[C@@H]1C[C@@H]2CCN(c3ncccn3)C[C@H]2O1`, the cytotoxicity at 70.5 h came out at 24.2%.
As to `COCCn1cc2c(n1)C(CNCc1cccc(OC)c1)OCC2` (stereo unspecified), the cytotoxicity at 70.5 h came to 20.4%.
For `COCC1CC2(CCN(C(=O)c3occc3C)CC2)CN1C(C)C` (stereo unspecified) the value was 20.9%; for `Cc1cccc(CN2CC3(CCN(Cc4ccoc4)CC3)OCC2=O)n1`, 17.7%.
Next, `Cc1ccc(CN2CC[C@H]3[C@H](CC(Cn4cccn4)N3C)C2)s1` (stereo partly specified): 15.9%.
In the case of `CN1[C@H](Cn2cccn2)C[C@@H]2CN(Cc3cccs3)CC[C@@H]21`, the cytotoxicity at 70.5 h is 18.9%.
Next, `CN1C(Cn2cccn2)C[C@@H]2CN(Cc3cccnc3)CC[C@@H]21` (stereo partly specified): -6.35%.
